# Results reported in patent publication US7981939B2, “Application of 2-bromide-isovanillin for the manufacture of a medicament for anti-cancer or/and radiation/chemotherapy sensitization” (Institute of Radiation Medicine, Academy of Military …, priority 2005, dated 2011).
# Legend:
# [1] = test system: ovarian cancer cell line A2780; experiment: Clonogenic assay, 6 days of continuous action, A2780; format: cell-based, human
# Method: (§1) Human cervical cancer cell line HeLa, human liver cancer cell line HepG2/7221/7402, human ovarian cancer cell line HOC8/A2780, human glioma cell line BT325, lung cancer cell line A549, brain metastatic lung cancer cell line BT72 and normal human hepatic cell line LO2 were all grown in DMEM liquid medium supplemented with 10% newborn calf serum. Human leukemia cell line Jurkat was grown in 1640 medium supplemented with 10% newborn calf serum. The above cell lines were cultured in a CO2 incubator at 5% CO2 at 37° C.
# By way of example, human cervical cancer cell line HeLa, lung cancer cell line A549, and ovarian cancer cell lines A2780 and HOC8 were used to determine the killing of cancer cells by 2-bromo-isovanillin for 6 days. Specifically, four groups were formed according to the type of the cancer cells. The cancer cells were diluted as appropriate, and were respectively plated into Petri dishes with a diameter of […], the amount of the cells adjusted depending on the concentration of 2-bromo-isovanillin to be added. Once adherence was achieved, each cell type received dosages of 0, 5, 10, 15, 20, 25, 30 and 35 μmol/L in triplicates. After 6 days of continuous action, the medium was replaced by a drug-free DMEM liquid medium. […] Then the cell clones were counted. The experimental data were expressed as the mean of 2-4 experiments and were plotted as a growth curve of cancer cells.
# [2] = test system: HeLa, HepG2/7221/7402, HOC8/A2780, BT325, A549, BT72 and IB-4 cancer cell lines; experiment: Clonogenic assay, 24 hrs of continuous action, ten cancer cell lines; format: cell-based, human; details: 5, 10, 20 and 40 μmol/L
# Method: as §1
# By way of example, human cervical cancer cell line HeLa, human liver cancer cell lines HepG2/7221/7402, human ovarian cancer cell lines HOC8/A2780, human glioma cell line BT325, lung cancer cell line A549, brain metastatic lung cancer cell line BT72 and prostate cancer cell line IB-4 were used to determine the killing of cancer cells by 2-bromo-isovanillin for 24 hrs. Specifically, ten groups were formed according to the type of the cancer cells. The cancer cells were diluted as appropriate, and were respectively plated into Petri dishes with a diameter of […], the amount of the cells adjusted depending on the concentration of 2-bromo-isovanillin to be added. […] Then the cell clones were counted. The experimental data were expressed as the mean of […] and were plotted as a growth curve of cancer cells, as shown in FIG. 3.
# [3] = test system: leukemia cell line Jurkat; experiment: Apoptosis in Jurkat cells (Hoechst 33258/FDA staining, DNA gel electrophoresis, flow cytometry); format: cell-based, human
# Method: as §1
# 3. Using the same procedure as described under items 1 and 2, the leukemia cells Jurkat were diluted, and plated into Petri dishes with a diameter of […], the amount of the cells adjusted depending on the concentration of 2-bromo-isovanillin to be added. Once adherence was achieved, the cells received dosages of 0, 10, 20, 30 and 40 μmol/L in triplicates. After 24 hrs of continuous action, the medium was replaced by a drug-free 1640 medium supplemented with 10% newborn calf serum. The cells were cultured for a total of 2 weeks. At the end of the culturing period, the cells were subjected to Hoechst 33258 and FDA double fluorescence staining and the results were plotted as an apoptosis curve, as shown in FIG. 4A.
# [4] = test system: human cervical cancer cell line HeLa; experiment: Radiosensitizing activity with 2 Gy Co-60 γ radiation, HeLa, MTT assay; format: cell-based
# Method: By way of example, human cervical cancer cell line HeLa was used to determine the radiosensitizing activity of 2-bromo-isovanillin.
# Specifically, human cervical cancer cells HeLa were divided into six groups, diluted as appropriate, and plated into Petri dishes with a diameter of […]. The amount of cells plated in each Petri dish was 300/500 for 0 Gy group (without Co-60 γ radiation), or 400/800 for 2 Gy group. Once adherence was achieved, three groups were treated with 20 μmol/L 2-bromo-isovanillin (BVAN3208) for 0, 4 and 18 hrs, respectively and then irradiated with Co-60 γ ray at 2 Gy, followed by two weeks under conventional culturing conditions. As to the other three groups, one group was treated with 20 μmol/L 2-bromo-isovanillin (BVAN3208) for 72 hrs and then cultured for two weeks under conventional conditions, one group received irradiation with Co-60 γ ray at 2 Gy and then was cultured for two weeks under conventional conditions, and the remaining group as control received no treatment at all and was cultured for two weeks under conventional conditions. 48 hrs after irradiation with Co-60 γ ray, using MTT assay, the optical density (OD) values at 490 nm were measured and recorded, wherein the magnitude of OD value is indicative of cell number, i.e., cell proliferation. The results are shown in FIG. 5, wherein C represents the control group, R(2 Gy) represents the group treated with Co-60 γ ray alone, BVAN3208 represents the group treated with 20 μmol/L 2-bromo-isovanillin alone, and BVAN3208/0 h R, BVAN3208/4 h R and BVAN3208/18 h R respectively represent the groups treated with 20 μmol/L 2-bromo-isovanillin for 0, 4, 18 hrs before irradiation with Co-60 γ ray. The survival rates of the cancer cells treated with 2 Gy Co-60 γ ray radiation or 20 μmol/L 2-bromo-isovanillin for 72 hrs were 76% and 70%, respectively.
# [5] = test system: prostate cancer cell line IB-4; experiment: G2/M arrest by flow cytometry, IB-4; format: cell-based; details: IB-4, 40 μmol/L, 24 hrs
# Method: By way of example, human liver cancer cell lines HepG2 and 7402, human ovarian cancer cell lines HOC8 and A2780, human glioma cell line BT325, lung cancer cell line A549, brain metastatic lung cancer cell line BT72 and prostate cancer cell line IB-4 were used to investigate the G2/M arresting of solid tumor cells of different tissue origins by 2-bromo-isovanillin as measured by the ratio of cells at G2/M phase. Specifically, the cancer cells were divided into two groups, and were treated with 0 or 40 μmol/L 2-bromo-isovanillin for 24 hours. Then the cells were harvested and analyzed for changes in cell cycle and cell apoptosis by flow cytometry.
# [6] = test system: human liver cancer cell line HepG2; experiment: Clonogenic assay, HepG2 compared with normal hepatic cells LO2; format: cell-based; details: 5-80 μmol/L, 24 hrs
# Method: By way of example, human liver cancer cell line HepG2 and normal human hepatic cell line LO2 were used to study the inhibitory effect of 2-bromo-isovanillin on the growth of liver cancer cells and normal cells by clonogenic assay. Specifically, five groups were formed according to the drug concentration, and the liver cancer cells HepG2 and normal hepatic cells LO2 were respectively treated with 5, 10, 20, 40 and 80 μmol/L 2-bromo-isovanillin for 24 hrs. Then cell survival was measured by clonogenic assay (FIG. 8). In addition, the cell cycle profile and apoptotic effect were compared using flow cytometry.
structure (smiles),measurement,setting,value
"COc1ccc(C=O)c(Br)c1O [2-bromo-isovanillin, 2-bromo-3-hydroxy-4-methoxybenzaldehyde]",survival rate,"[1]; A2780, 20 μmol/L",lower than 10%
same,proliferation,"[1]; A2780, 30 μmol/L",completely inhibited
same,effect on the proliferation of all ten cancer cell lines,[2],significant inhibitory effect
same,apoptosis in Jurkat (flow cytometry),"[3]; 0, 20, 30 μmol/L, 24 hrs",significantly induced apoptosis
same,DNA gel electrophoresis finding,"[3]; Jurkat, 20, 30, 40 μmol/L, 2% agarose gel",DNA fragmentation bands characteristic of apoptosis
same,dose inducing necrosis or M phase catastrophic death,"[3]; Jurkat, 24 hrs, Hoechst 33258 and FDA double fluorescence staining",≥ 40 µmol/L
same,survival rate,"[4]; 20 μmol/L for 72 hrs alone, no radiation",70%
same,cell survival rate,"[4]; 20 μmol/L, 2 Gy radiation 4 hrs after administration",about 51%
same,cell survival rate,"[4]; 20 μmol/L, 2 Gy radiation 18 hrs after administration",~21%
same,cell survival rate,"[4]; 20 μmol/L, 2 Gy radiation immediately (0 h) after administration",about 51%
same,sensitization ratio,"[4]; 20 μmol/L, pretreatment 18 hrs prior to 2 Gy radiation",3.32
same,cell cycle effect,[5],arrested at G2/M phase
same,killing effect on HepG2 compared with normal hepatic cells,[6],significantly higher
